Entries after “also recorded” stand apart in the source; their conditions may differ.
How the values were obtained:
naïve mice = experiment: Abuse liability, conditioned place preference (CPP) paradigm; type: in vivo, mouse; settings: 2-day conditioning
Protocol: Experimental approaches. […] Specifically, one day after measuring natural place preference, vehicle was be given in the morning, and the mouse was placed in its preferred chamber for 20 min. In the afternoon, test drugs were given, and the mouse was placed in its non-preferred chamber for 20 min. This conditioning procedure was repeated 2 times. One day after the last conditioning session, CPP for the drug-paired chamber was measured for 20 min.

[1] = Tissue distribution after single i.v. injection in male CD-1 mice; settings: for rank order of the exposure of the organs to the parent drug: i.v. administration
[2] = system: mice with plantar incision; experiment: Postoperative pain model (plantar incision), von Frey paw withdrawal; settings: for effect on postoperative mechanical hypersensitivity: post-operative treatment
Protocol: (§1) Animal models of pain. To model postoperative pain in mice, plantar incision was performed under isoflurane anesthesia. Specifically, a 4-8 mm incision was made through the skin, fascia, and muscle of the plantar side of one hind paw, longitudinally starting from the proximal edge of the heel. The skin was apposed with sutures (Fine Science Tools, Foster City, CA). The suture was removed at the end of postoperative day 2. To model neuropathic pain in mice, a surgery was performed to ligate the fifth lumbar (L5) spinal nerve (spinal nerve ligation, SNL).
(§2) Behavioral testing. Mechanical pain sensitivity after plantar incision or SNL was assessed by measuring paw withdrawal behaviors in response to von Frey filament (VFF) probing. A mouse was placed in a plastic chamber on top of a mesh screen platform. The VFF of 0.98 mN was applied perpendicularly to the hind paw. […] The percent of withdrawal responses out of the ten trials was recorded.
(§3) Statistical analysis. We used a generalized linear mixed model to analyze the number of withdrawals out of 10 trials (binomial distribution) repeatedly measured at multiple time points (AR1 covariance structure) with random intercepts for subject (i.e., mouse) variances. Degrees of freedom were allowed to vary across tests by Satterthwaite approximation.

human hepatic microsomes = settings: pooled human liver microsomes, 50-200 μM substrate, 20 min, 37° C.
Protocol: The reaction was incubated for 20 min at 37° C. and terminated by the addition of 1.2 mL of cold acetonitrile.
Analytical method: An LC-MS/MS method for the quantification of EDDP, d3-EDDP and d6-EDDP was developed and validated. The samples were analyzed with an API 4000 triple quadrupole mass spectrometer coupled with an Agilent HPLC 1200 system (Applied Biosystems, Foster City, CA). […] Separation of EDDP, d3-EDDP and d6-EDDP was achieved by a Waters Symmetry C18 HPLC column at 45° C.

[3] = system: mice with spinal nerve ligation (SNL); experiment: Neuropathic pain model (spinal nerve ligation, SNL), von Frey paw withdrawal
Protocol: as §1, §2, §3

Swiss mice = settings: intraperitoneally (i.p.); cited from earlier work
[4] = Plasma pharmacokinetics after single i.v. injection in male CD-1 mice; settings: parent drug in plasma, 2.0 mg/kg i.v.
[5] = 3 mg/kg i.p., once daily for 4 days

[2H]C([2H])([2H])CC(=O)C(CC(C)N(C([2H])([2H])[2H])C([2H])([2H])[2H])(c1ccccc1)c1ccccc1 (racemic) [d9-methadone]
conditioned place preference for the drug-paired chamber (naïve mice): did not develop conditioned place preference; also recorded: did not develop CPP; also recorded: did not show any apparent conditioned place preference | rank order of the exposure of the organs to the parent drug [1]: lungs>kidneys≈liver>spleen>heart>brain | Kp ([1]; male, CD-1, mouse, in vivo, iv, 2 mg/kg): 0.35 ± 0.12 | postoperative mechanical hypersensitivity vs methadone-treated mice, next day ([2]; intra-operative treatment, 3 mg/kg i.p.): no difference | postoperative mechanical hypersensitivity vs methadone-treated mice, day of surgery (2 hr, 4 hr) ([2]; intra-operative treatment, 3 mg/kg i.p. before plantar incision): lower postoperative mechanical hypersensitivity | development of analgesic tolerance ([2]; once daily for 4 days, 3 mg/kg i.p.): no development of the apparent analgesic tolerance | effect on postoperative mechanical hypersensitivity [2, 5]: alleviated hypersensitivity after each systemic injection | Cohen's d, % withdrawals before and after treatment ([2]; postoperative treatment, paired comparison): > 20 | Cohen's d between methadone and d9-methadone groups, % of withdrawals 4 hours post-incision ([2]; preliminary intra-operative treatment): 2.1 | biotransformation (N-demethylation) rate compared to the non-deuterated substrate (human hepatic microsomes): further decreased the rate | effect on neuropathic pain (tactile allodynia) ([3]; 3 mg/kg i.p. once daily for 3 days after SNL): effectively alleviated this neuropathic pain after each injection; also recorded: effectively inhibited this neuropathic pain after each injection | development of analgesic tolerance ([3]; once daily for 3 days, 3 mg/kg i.p.): no development of the apparent analgesic tolerance

CCC(=O)C(CC(C)N(C)C)(c1ccccc1)c1ccccc1 (racemic) [methadone, 6-(dimethylamino)-4,4-diphenylheptan-3-one]
conditioned place preference for the drug-paired chamber (naïve mice): developed CPP; also recorded: relatively weaker conditioned place preference | rank order of the exposure of the organs to the parent drug [1]: kidneys≈lungs>spleen>liver>heart>brain | effect on postoperative mechanical hypersensitivity [2, 5]: unable to reduce | LD50 (Swiss mice): 41 mg/kg | AUC0-8 h [4]: 414 ± 67 ng·h/mL | AUC0-∞ [4]: 436 ± 75 ng·h/mL | Tmax [4]: 0.08 ± 0^ h | Cmax ([4]; mean ± s.d.): 521 ± 55 ng/mL

CCC1=[N+](C)C(C)CC1(c1ccccc1)c1ccccc1 (stereo not drawn) [EDDP, 2-ethylidine-1,5-dimethyl-3,3-diphenylpyrrolidine]
rank order of the exposure of the organs to the metabolite ([1]; i.v. administration of the parent drug): lungs>liver>kidney≈heart>spleen

C=CC[N+]1(C)CC[C@]23c4c5ccc(O)c4O[C@H]2C(=O)CC[C@@]3(O)[C@H]1C5 (stereo partly drawn) [NLXM, naloxone methiodide, reference compound]
effect of NLXM on the relief of postoperative pain by d9-methadone ([2]; NLXM 10 mg/kg i.p. 30 minutes before d9-methadone): completely blocked the effect of d9-methadone

[2H]C([2H])([2H])CC(=O)C(CC(C)N(C)C)(c1ccccc1)c1ccccc1 (stereo not drawn) [d3-methadone, reference compound]
biotransformation (N-demethylation) rate compared to the non-deuterated substrate (human hepatic microsomes): significantly decreased the biotransformation

CN1CC[C@]23c4c5ccc(O)c4O[C@H]2[C@@H](O)C=C[C@H]3[C@H]1C5 [morphine]
conditioned place preference for the drug-paired chamber (naïve mice): spent significantly more time in the bright chamber; also recorded: developed CPP
